What all share (experiment): Western blot, injured cortex
Common to all, as to type: in vivo, mice

Assay [1] has as its system p-Akt Thr308. The method, then:
(§1) Mice were anesthetized and positioned in a stereotaxic frame. LY294002 (200 nM in 0.5 µL of saline) or equal amount of physiological saline was intracerebroventricularly (icv) injected at 30 min before CCI as previously described. A 1 mm cranial burr hole was drilled into the skull. A 30-gauge needle on a Hamilton syringe was implanted into the lateral ventricle using stereotactic coordinates: 1.5 mm posterior to bregma and 1.0 mm right lateral to the midline, 2 mm in depth. LY294002 or saline was infused into the brain at a rate of 0.05 µL/min over 10 min with an infusion pump (KDS 310, KD Scientific Inc., Holliston, MA, USA), and the needle was left in place for an additional 20 min to prevent reflux. After the needle was removed, CCI procedure was conducted immediately. Sham-operated mice were infused icv with saline, but were not subjected to CCI.
(§2) Three sets of experiments were performed. The first set was to investigate the protective effects of salidroside. All animals were randomized into 1 of 3 groups (sham injury, CCI + vehicle, CCI + SALD 20). Surgery/injury, behavioral testing, and tissue analyses were performed by different individuals. Behavioral testing and tissue analyses were performed by individuals blinded to the treatment group. Salidroside (Cayman Chemical, Ann Arbor, MI, USA) dissolved in normal saline (0.25 mL) or a corresponding volume of vehicle (saline) was administered intraperitoneally 10 min following injury. Testing after injury was completed as follows: 1) behavioral testing at days 1, 4, 7, 14, 21, and 28 (n = 8–10 mice/group); 2) cresyl violet staining at day 28 (n = 9 mice/group); 3) histology, determination of brain water content, and western blot analysis at day 1 or 3 (n = 5–6 mice/group). To determine the optimal dose of salidroside, a pilot study was performed using 2 different doses (20 and 50 mg/kg) administered 10 min after injury, and neurological deficits and tissue damage were evaluated as the main outcomes. […] The second set of experiment was to assess the effect of the inhibition of PI3K/Akt with the specific PI3K inhibitor, LY294002 (Cell Signaling Technology, Danvers, MA, USA), on salidroside effects. Animals were randomized into 4 groups. Mice received either: 1) icv pretreatment of LY294002 followed by SALD 20 after CCI (S20Y group); or 2) icv pretreatment of saline (vehicle control) followed by SALD 20 after CCI (S20V group). 3) Mice were infused icv with saline and were subjected to sham injury. 4) Mice were infused icv with LY294002 and were subjected to sham injury. Testing after injury was completed as follows: 1) cresyl violet staining at day 28 (n = 6 mice/group); 2) western blot analysis at day 1 (n = 6 mice/group). The third set of experiment was performed to examine the neuroprotective time window afforded by salidroside. Mice received intraperitoneal SALD 20 or vehicle (saline) at 3 or 6 h following CCI and were sacrificed 1 day later for FJB staining and western blot analysis (n = 6 mice/group).
(§3) Brains of injured or sham animals were collected 1 day and 3 days post CCI or sham surgery, and a 4 mm coronal section from the injured area over the parietal cortex and ipsilateral hippocampus were collected. The protein samples were obtained from tissue homogenates in 300 µL of ice-cold reagent (T-PER reagent; Pierce Biotechnology, Rockford, IL, USA) with a complete mini protease inhibitor cocktail (Roche Molecular Biochemicals) centrifuged at 14000g for 30 min. Protein concentration was determined by Bradford reagent spectrophotometrically at A595. Equal amounts of protein samples were denatured in gel-loading buffer at 100°C for 5 min, and then loaded onto sodium dodecyl sulfate-polyacrylamide gels to be separated. Separated proteins were transferred to Immobilon-P membranes (Millipore, Billerica, MA, USA), blocked with the use of 5% milk in PBST and probed with primary antibodies. […]

Assay [2] deals with p-Akt Ser473. Conditions: for p-Akt Ser473 level, % of the vehicle level: 20 mg/kg ip 10 min after CCI. The method, then: as §1, §2, §3
Assay [3] deals with p-Bad. The following applies: 20 mg/kg ip 10 min after CCI; days 1 and 3; P>0.05. The method, then: as §1, §2, §3
The subject of assay [4] is p-FOXO1. Conditions: 20 mg/kg ip 10 min after CCI; days 1 and 3; P>0.05. The method, then: as §1, §2, §3
Setting [5] is: 20 mg/kg ip 10 min after injury, day 1.

The values that follow come from article PMC3454376, “Salidroside Improves Behavioral and Histological Outcomes and Reduces Apoptosis via PI3K/Akt Signaling after Experimental Traumatic Brain Injury” (PLoS ONE, 2012).

With `OC[C@H]1O[C@@H](OCCc2ccc(O)cc2)[C@H](O)[C@@H](O)[C@@H]1O` [SALD, salidroside], in assay [1] (20 mg/kg ip 10 min after CCI, day 3, P<0.05), the “p-Akt Thr308 level, % of the vehicle level” value stood at 176.0%. For the same compound, the “increase of p-Akt Thr308 level” value in assay [1] (setting [5]) worked out at 30.3%. The “change of p-Akt Thr308 level (attenuated by)” value in assay [1] (20 mg/kg ip 3 h after injury, day 1, not significant) is recorded as 19.5%. The “p-Akt Ser473 level, % of the vehicle level” value was determined as 200.7% in assay [2] (day 1, P<0.05) and 146.9% in assay [2] (day 3, P>0.05). For the same compound, in assay [2] (setting [5]), the “increase of p-Akt Ser473 level” value is 100.7%. The “change of p-Akt Ser473 level (attenuated by)” value in assay [2] (20 mg/kg ip 3 h after injury, day 1) is reported as 46.2%. In addition, the “p-Bad level versus vehicle group” value in assay [3] is on record as “no difference”. Moreover, the “p-FOXO1 level versus vehicle group” value in assay [4] is given as “no difference”.
